Laboratory results as given in ChEMBL document CHEMBL5512667, “Discovery of Potent, Selective, and Orally Available IRE1α Inhibitors Demonstrating Comparable PD Modulation to IRE1 Knockdown in a Multiple Myeloma Model” (J Med Chem, 2024).
Values after ≈ are worked out from the molar mass of the structure shown.

system: not listed separately; assay: Apparent permeability across apical to basolateral side in MDCK cells at 10 uM incubated for 3 hrs by LC-MS/MS method; format: ADME, cell-based, Canis lupus familiaris; conditions: dog

Compared with `O=S(=O)(Cc1ccccc1)Nc1c(F)cc(Oc2ncccc2-c2ccnc(N[C@@H]3CNC[C@H](CF)C3)n2)c(F)c1F`, `Cc1c(Oc2ncccc2-c2ccnc(N[C@H]3CCCNC3)n2)cc(F)c(NS(=O)(=O)Cc2ccccc2)c1F` is 2.4-fold lower in Papp A→B at 3 h, 10 µM: 2.6 ×10⁻⁶ cm/s for the first, 1.1 ×10⁻⁶ cm/s for the second.

`O=S(=O)(Cc1ccccc1)Nc1ccc(Oc2ncccc2-c2ccnc(N[C@H]3CCCNC3)n2)c(F)c1F` and `Cc1c(Oc2ncccc2-c2ccnc(N[C@H]3CCCNC3)n2)ccc(NS(=O)(=O)Cc2ccccc2)c1F` are within 1.5-fold of each other in Papp A→B at 3 h, 10 µM: 2.1 ×10⁻⁶ cm/s for the first, 2 ×10⁻⁶ cm/s for the second.

molecular target: T1, Serine/threonine-protein kinase/endoribonuclease IRE1 (Homo sapiens, UniProt O75460); assay: Inhibition of IRE1alpha RNase activity (unknown origin) using XBP1 as substrate preincubated for 1 hr followed by thapsigargin stimulation for 5 hrs by One-Glo luciferase reagent based luminescence assay; conditions: not given
T1 sequence (O75460 whole entry): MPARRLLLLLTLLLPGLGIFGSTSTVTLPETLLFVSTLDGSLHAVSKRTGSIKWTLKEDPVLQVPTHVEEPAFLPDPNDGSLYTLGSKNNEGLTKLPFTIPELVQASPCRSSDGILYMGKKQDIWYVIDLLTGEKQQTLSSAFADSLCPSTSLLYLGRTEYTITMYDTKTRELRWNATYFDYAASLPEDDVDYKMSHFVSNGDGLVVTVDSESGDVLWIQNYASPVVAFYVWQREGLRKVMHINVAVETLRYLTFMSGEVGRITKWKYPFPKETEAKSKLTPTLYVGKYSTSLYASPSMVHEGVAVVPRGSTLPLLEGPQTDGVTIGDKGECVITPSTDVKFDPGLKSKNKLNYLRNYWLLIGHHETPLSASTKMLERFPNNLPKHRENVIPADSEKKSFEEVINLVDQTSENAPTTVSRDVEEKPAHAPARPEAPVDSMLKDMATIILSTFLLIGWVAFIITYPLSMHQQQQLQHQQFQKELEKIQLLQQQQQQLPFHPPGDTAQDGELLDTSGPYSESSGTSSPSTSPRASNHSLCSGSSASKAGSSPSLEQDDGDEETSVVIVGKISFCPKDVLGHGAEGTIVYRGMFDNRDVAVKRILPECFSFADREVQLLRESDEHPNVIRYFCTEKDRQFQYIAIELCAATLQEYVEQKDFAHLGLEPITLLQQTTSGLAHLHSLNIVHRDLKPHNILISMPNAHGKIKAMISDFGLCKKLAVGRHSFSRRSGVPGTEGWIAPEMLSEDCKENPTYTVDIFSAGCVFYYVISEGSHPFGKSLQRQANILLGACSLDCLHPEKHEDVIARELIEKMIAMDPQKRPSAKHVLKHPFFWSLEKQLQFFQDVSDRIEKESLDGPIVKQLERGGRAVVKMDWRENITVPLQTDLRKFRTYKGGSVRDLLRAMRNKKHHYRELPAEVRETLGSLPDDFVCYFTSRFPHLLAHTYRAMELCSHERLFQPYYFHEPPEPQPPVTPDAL

`O=S(=O)(Cc1ccccc1)Nc1c(F)cc(Oc2ncccc2-c2ccnc(N[C@@H]3CNC[C@H](CF)C3)n2)c(F)c1F` and `Cc1c(Oc2ncccc2-c2ccnc(N[C@H]3CCCNC3)n2)cc(F)c(NS(=O)(=O)Cc2ccccc2)c1F` are within 1.5-fold of each other in IC50: 32 nM for the first, 37 nM for the second.

Compared with `O=S(=O)(Cc1ccccc1)Nc1ccc(Oc2ncccc2-c2ccnc(N[C@H]3CCCNC3)n2)c(F)c1F`, `Cc1c(Oc2ncccc2-c2ccnc(N[C@H]3CCCNC3)n2)ccc(NS(=O)(=O)Cc2ccccc2)c1F` is 3.8-fold higher in IC50: 88 nM for the first, 330 nM for the second.

molecular target: T1, Serine/threonine-protein kinase/endoribonuclease IRE1; assay: Inhibition of IRE1alpha RNase activity (Q470 to L977 residues) (unknown origin) expressed in Sf9 cells using mini-XBP-1 stem-loop RNA as substrate measured every 2 mins interval for 50 mins by FRET assay; conditions: not given

Going from `O=S(=O)(Cc1ccccc1)Nc1c(F)cc(Oc2ncccc2-c2ccnc(N[C@@H]3CNC[C@H](CF)C3)n2)c(F)c1F` to `Cc1c(Oc2ncccc2-c2ccnc(N[C@H]3CCCNC3)n2)cc(F)c(NS(=O)(=O)Cc2ccccc2)c1F`, the IC50 rises from 5.2 nM to 29 nM (5.6-fold).

First: O=S(=O)(Cc1ccccc1)Nc1ccc(Oc2ncccc2-c2ccnc(N[C@H]3CCCNC3)n2)c(F)c1F
Second: Cc1c(Oc2ncccc2-c2ccnc(N[C@H]3CCCNC3)n2)ccc(NS(=O)(=O)Cc2ccccc2)c1F
The IC50 of the first is 8.3-fold lower: 2.9 nM for the first, 24 nM for the second.

molecular target: T1, Serine/threonine-protein kinase/endoribonuclease IRE1; assay: Inhibition of His-tagged IRE1alpha (G547 to L977 residues) (unknown origin) expressed in Sf9 cells preincubated with anti-His Europium labeled antibody for 1 hr prior to compound addition followed by tracer 236 addition and measured after 1 hr by TR-FRET assay; conditions: not given

`O=S(=O)(Cc1ccccc1)Nc1c(F)cc(Oc2ncccc2-c2ccnc(N[C@@H]3CNC[C@H](CF)C3)n2)c(F)c1F` and `Cc1c(Oc2ncccc2-c2ccnc(N[C@H]3CCCNC3)n2)cc(F)c(NS(=O)(=O)Cc2ccccc2)c1F` are within 1.5-fold of each other in IC50: 0.26 nM for the first, 0.29 nM for the second.

Compared with `O=S(=O)(Cc1ccccc1)Nc1ccc(Oc2ncccc2-c2ccnc(N[C@H]3CCCNC3)n2)c(F)c1F`, `Cc1c(Oc2ncccc2-c2ccnc(N[C@H]3CCCNC3)n2)ccc(NS(=O)(=O)Cc2ccccc2)c1F` is 1.8-fold higher in IC50: 0.98 nM for the first, 1.8 nM for the second. The first is the more potent here.

system: not listed separately; assay: Plasma protein binding in mouse incubated for 4 hrs by LC-MS/MS based rapid equilibrium dialysis method; format: ADME, cell-free; conditions: read-out: PPB (converted)

Compound `O=S(=O)(Cc1ccccc1)Nc1c(F)cc(Oc2ncccc2-c2ccnc(N[C@@H]3CNC[C@H](CF)C3)n2)c(F)c1F` has a fraction unbound at 4 h of 0.029.

system: not listed separately; assay: Kinetic solubility of compound at pH 7.4; format: physicochemical; conditions: buffer, read-out: Kinetic_solubility

`O=S(=O)(Cc1ccccc1)Nc1c(F)cc(Oc2ncccc2-c2ccnc(N[C@@H]3CNC[C@H](CF)C3)n2)c(F)c1F` showed a solubility kinetic of 28 µM (≈ 16.9 µg/mL).

system: not listed separately; assay: Volume of distribution at steady state in CD-1 mouse at 10 mg/kg, po or 1 mg/kg, iv measured upto 24 hrs by LC-MS/MS analysis; format: ADME, organism-based; conditions: in vivo

Compound `O=S(=O)(Cc1ccccc1)Nc1c(F)cc(Oc2ncccc2-c2ccnc(N[C@@H]3CNC[C@H](CF)C3)n2)c(F)c1F` has a Vdss of 3.51 L/kg.

system: not listed separately; assay: Half-life in CD-1 mouse at 10 mg/kg, po or 1 mg/kg, iv measured upto 24 hrs by LC-MS/MS analysis; format: ADME, organism-based; conditions: in vivo

With `O=S(=O)(Cc1ccccc1)Nc1c(F)cc(Oc2ncccc2-c2ccnc(N[C@@H]3CNC[C@H](CF)C3)n2)c(F)c1F` the half-life was 45 min.

system: not listed separately; assay: Bioavailability in CD-1 mouse at 10 mg/kg, po or 1 mg/kg, iv measured upto 24 hrs by LC-MS/MS analysis; format: ADME, organism-based; conditions: in vivo

`O=S(=O)(Cc1ccccc1)Nc1c(F)cc(Oc2ncccc2-c2ccnc(N[C@@H]3CNC[C@H](CF)C3)n2)c(F)c1F` showed a bioavailability of 36%.
